This note sets out measurements from US10065941B2, “Aminotriazine derivative and pharmaceutical composition comprising the same” (Shionogi & Co., Ltd., priority 2013, dated 2018).

For this assay, the target named is human P2X3 receptor (Homo sapiens (Human), UniProt P56373). The assay is described as follows: Evaluation of human P2X3 receptor inhibitory activity (Test Example 1). To be noted: C6BU-1 cell transfected with human P2X3 receptor gene, FLIPR 384. The format is cell-based. In outline: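 FLIPR calcium read-out: signal taken as peak fluorescence after ATP addition divided by starting fluorescence, and IC50 calculated from it. Compound added 5 min before 150 nM ATP solution (pre-dispense stock) to Fluo-3-AM-loaded C6BU-1 cells stably transfected with human P2X3; HEPES buffer pH 7.5 with probenecid.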
human P2X3 receptor, sequence (P56373 whole entry): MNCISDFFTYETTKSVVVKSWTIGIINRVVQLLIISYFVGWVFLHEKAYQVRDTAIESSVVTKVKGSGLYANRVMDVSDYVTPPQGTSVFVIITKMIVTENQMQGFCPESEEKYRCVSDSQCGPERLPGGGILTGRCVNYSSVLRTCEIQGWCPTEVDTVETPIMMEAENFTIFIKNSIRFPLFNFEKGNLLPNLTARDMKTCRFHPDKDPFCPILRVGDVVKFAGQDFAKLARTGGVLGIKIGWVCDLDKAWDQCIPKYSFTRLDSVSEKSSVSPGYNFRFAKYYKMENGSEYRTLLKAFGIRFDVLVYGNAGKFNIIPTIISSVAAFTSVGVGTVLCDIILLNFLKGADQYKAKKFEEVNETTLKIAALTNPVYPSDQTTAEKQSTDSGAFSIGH

SMILES strings stand for the structures.

The molecule `CC(C)(Cn1c(=O)[nH]/c(=N\c2ccc(Oc3cc(F)nc(F)c3)cc2)n(Cc2ccc(Cl)cc2)c1=O)C(=O)O` [Compound R-070] gave an IC50 of 7 nM. The result for `COC(=O)C(C)(C)Cn1c(=O)[nH]/c(=N\c2ccc(N3CCCCC3)c(C)c2)n(Cc2ccc(Cl)cc2)c1=O` [Compound R-139] reads 119 nM; that for `CCOC(=O)CCCn1c(=O)[nH]/c(=N\c2ccc(Oc3cccc(F)n3)cc2)n(Cc2ccc(C)cc2)c1=O` [Compound R-296], 5 nM. The figure for `O=C(O)CCn1c(=O)[nH]/c(=N\c2ccc(Oc3ccc(Cl)cn3)cc2)n(Cc2ccc(Cl)cc2)c1=O` [Compound R-284] is 5 nM.

`COC(=O)[C@@H](C)Cn1c(=O)[nH]/c(=N\c2ccc(Oc3cccnc3)cc2)n(Cc2ccc(Cl)cc2)c1=O` [Compound R-205] had an IC50 of 8 nM.

As for `C[C@@H](Cn1c(=O)[nH]/c(=N\c2ccc(Oc3ccccn3)cc2)n(Cc2ccc(Cl)s2)c1=O)C(=O)O` [Compound I-273], the 50% inhibitory concentration (IC50) worked out at 5 nM. `C[C@@H](C(=O)O)[C@H](C)n1c(=O)[nH]/c(=N\c2ccc(Oc3ccccn3)cc2)n(Cc2ccc(Cl)cc2)c1=O` [Compound I-147] displayed an IC50 of 7 nM.

`CCOC(=O)[C@H]1C[C@@H](n2c(=O)[nH]/c(=N\c3ccc(Oc4ncccc4F)cc3)n(Cc3ccc(Cl)cc3)c2=O)C1` [Compound I-062] returned an IC50 of 31 nM.

`C[C@@H](Cn1c(=O)[nH]/c(=N\c2ccc(Oc3cccnc3)cc2)n(Cc2ccc(Cl)cc2)c1=O)C(=O)O` [Compound R-207] yielded an IC50 of 9 nM.

Molecule `Cc1ccc(Cn2c(=O)n([C@H](C)CC(=O)O)c(=O)[nH]/c2=N\c2ccc(Oc3ccc(F)cn3)cc2)cc1` [Compound I-191] gave an IC50 of 11 nM. In turn, `COC(=O)C(C)(C)Cn1c(=O)[nH]/c(=N\c2ccc(Oc3ccc(Cl)cn3)cc2)n(Cc2ccc(C)cc2)c1=O` [Compound I-098] gave an IC50 of 7 nM. The figure for `COC(=O)[C@H](C)[C@H](C)n1c(=O)[nH]/c(=N\c2ccc(Oc3cccc(Cl)n3)cc2)n(Cc2ccc(Cl)cc2)c1=O` [Compound I-013] is 58 nM. `C[C@@H](Cn1c(=O)[nH]/c(=N\c2ccc(Oc3ccc(C(F)(F)F)nn3)cc2)n(Cc2ccc(Cl)cc2)c1=O)C(=O)O` [Compound R-030] displayed an IC50 of 8 nM. Consider `COC(=O)[C@H](C)[C@H](C)n1c(=O)[nH]/c(=N\c2ccc(Oc3ccnc(Cl)c3)cc2)n(Cc2ccc(Cl)cc2)c1=O` [Compound R-150], for which the concentration for half-maximal inhibition (IC50) stood at 18 nM. In turn, `C[C@@H](Cn1c(=O)[nH]/c(=N\c2ccc(Oc3cc(F)nc(F)c3)cc2)n(Cc2ccc(Cl)cc2)c1=O)C(=O)O` [Compound R-057] gave a concentration for half-maximal inhibition (IC50) of 6 nM.

`C[C@@H](Cn1c(=O)[nH]/c(=N\c2ccc(Oc3cc(F)ncn3)cc2)n(Cc2ccc(Cl)cc2)c1=O)C(=O)O` [Compound R-198] had an IC50 of 9 nM. Turning to `COC(=O)CCn1c(=O)[nH]/c(=N\c2ccc(Oc3ccccn3)c(F)c2)n(Cc2ccc(C)cc2)c1=O` [Compound R-292], the IC50 amounted to 4 nM. The result for `COC(=O)[C@@H](C)Cn1c(=O)[nH]/c(=N\c2ccc(Oc3ccc(C(F)(F)F)nn3)cc2)n(Cc2ccc(Cl)cc2)c1=O` [Compound R-028] reads 7 nM; that for `C[C@@H](Cn1c(=O)[nH]/c(=N\c2ccc(Oc3ncccn3)c(F)c2)n(Cc2ccc(Cl)cc2)c1=O)C(=O)O` [Compound R-164], 10 nM; that for `C[C@@H](Cn1c(=O)[nH]/c(=N\c2ccc(Oc3ncccc3C(F)(F)F)cc2)n(Cc2ccc(Cl)cc2)c1=O)C(=O)O` [Compound I-032], 11 nM. The figure for `COC(=O)[C@H](C)[C@H](C)n1c(=O)[nH]/c(=N\c2ccc(Oc3cc(Cl)ccn3)cc2)n(Cc2ccc(Cl)cc2)c1=O` [Compound I-087] is 107 nM; for `Cc1ccc(Cn2c(=O)n(CC(C)(C)C(=O)O)c(=O)[nH]/c2=N\c2ccc(Oc3ncccc3Cl)cc2)cc1` [Compound I-118] it is 9 nM.

Molecule `COc1cc(Oc2ccc(/N=c3\[nH]c(=O)n([C@@H](C)[C@@H](C)C(=O)O)c(=O)n3Cc3ccc(Cl)cc3)cc2)cc(F)n1` [Compound R-177] came in with an IC50 of 5 nM.

In the case of `Cc1ccc(Cn2c(=O)n(C[C@H](C)C(=O)O)c(=O)[nH]/c2=N\c2ccc(Oc3ncccc3Cl)cc2)cc1` [Compound I-117], the IC50 was found to be 5 nM. The result for `CC1(Cn2c(=O)[nH]/c(=N\c3ccc(Oc4ccccn4)cc3)n(Cc3ccc(Cl)cc3)c2=O)COC(C)(C)OC1` [Compound R-236] reads 4 nM; that for `C[C@@H](Cn1c(=O)[nH]/c(=N\c2ccc(Oc3cc(C(F)(F)F)ccn3)cc2)n(Cc2ccc(Cl)cc2)c1=O)C(=O)O` [Compound I-088], 15 nM. In the case of `C[C@@H](Cn1c(=O)[nH]/c(=N\c2ccc(Oc3cnc(C(F)(F)F)cn3)cc2)n(Cc2ccc(Cl)cc2)c1=O)C(=O)O` [Compound R-039], the IC50 came to 6 nM. The figure for `Cc1cc(/N=c2\[nH]c(=O)n(C[C@H](C)C(=O)O)c(=O)n2Cc2ccc(Cl)cc2)ccc1N1CCCCC1` [Compound R-142] is 69 nM; for `COC(=O)[C@H](C)[C@H](C)n1c(=O)[nH]/c(=N\c2ccc(Oc3cnccn3)c(F)c2)n(Cc2ccc(Cl)cc2)c1=O` [Compound R-122] it is 13 nM.

In turn, `Cc1ccc(Cn2c(=O)n(CC(C)(C)C(=O)O)c(=O)[nH]/c2=N\c2ccc(Oc3ccc(F)cn3)cc2)cc1` [Compound I-041] returned an IC50 of 9 nM. The result for `C[C@@H](Cn1c(=O)[nH]/c(=N\c2ccc(Oc3cnc(C#N)nc3)cc2)n(Cc2ccc(Cl)cc2)c1=O)C(=O)O` [Compound R-246] reads 6 nM; that for `Cc1ccc(Cn2c(=O)n([C@@H](C)[C@@H](C)C(=O)O)c(=O)[nH]/c2=N\c2ccc(Oc3ccc(F)cn3)cc2)cc1` [Compound I-105], 7 nM; that for `Cc1ccc(Cn2c(=O)n([C@H]3C[C@H](C(=O)O)C3)c(=O)[nH]/c2=N\c2ccc(Oc3ccc(F)cn3)cc2)cc1` [Compound I-182], 8 nM.

With `C[C@@H](Cn1c(=O)[nH]/c(=N\c2ccc(Oc3ccccn3)cc2)n(C[C@H]2CC[C@H](C)CC2)c1=O)C(=O)O` [Compound I-145], half-maximal inhibition (IC50) was put at 6 nM.

As to `COC(=O)[C@H](C)Cn1c(=O)[nH]/c(=N\c2ccc(Oc3ccccn3)cc2)n(Cc2ccc(C)cc2)c1=O` [Compound I-140], it took 3 nM to reach half-maximal inhibition (IC50). For `Cc1ccc(Cn2c(=O)n([C@@H](C)[C@@H](C)C(=O)O)c(=O)[nH]/c2=N\c2ccc(Oc3ccc(OC(F)F)cn3)cc2)cc1` [Compound I-138], the IC50 worked out at 7 nM. `CO[C@@H](Cn1c(=O)[nH]/c(=N\c2ccc(Oc3ncccc3F)cc2)n(Cc2ccc(Cl)cc2)c1=O)C(=O)O` [Compound I-102] came in with an IC50 of 5 nM. The result for `CC(C)(Cn1c(=O)[nH]/c(=N\c2ccc(Oc3ccccn3)cc2)n(Cc2ccc(Cl)cc2)c1=O)C(=O)O` [Compound I-154] reads 8 nM.

Regarding `COC(=O)[C@@H](C)Cn1c(=O)[nH]/c(=N\c2ccc(Oc3ccc(C)cn3)cc2)n(Cc2ccc(C)cc2)c1=O` [Compound I-108], the IC50 is 4 nM. The molecule `C[C@@H](C(=O)O)[C@H](C)n1c(=O)[nH]/c(=N\c2ccc(Oc3cccc(Cl)n3)cc2)n(Cc2ccc(Cl)cc2)c1=O` [Compound I-016] came in with an IC50 of 8 nM.

`COC(=O)C(C)(C)Cn1c(=O)[nH]/c(=N\c2ccc(Oc3noc(C)n3)cc2)n(Cc2ccc(Cl)cc2)c1=O` [Compound R-113] showed a half-inhibitory concentration (IC50) of 13 nM.

`COc1ccc(Oc2ccc(/N=c3\[nH]c(=O)n([C@@H](C)[C@@H](C)C(=O)O)c(=O)n3Cc3ccc(Cl)cc3)cc2)nn1` [Compound R-191]: the half-inhibitory concentration (IC50) is 12 nM. The result for `C[C@@H](Cn1c(=O)[nH]/c(=N\c2ccc(Oc3nc4ncccc4o3)cc2)n(Cc2ccc(Cl)cc2)c1=O)C(=O)O` [Compound R-204] reads 8 nM; that for `C[C@@H](Cn1c(=O)[nH]/c(=N\c2ccc(Oc3cccnn3)c(F)c2)n(Cc2ccc(Cl)cc2)c1=O)C(=O)O` [Compound R-037], 7 nM. The figure for `COC(=O)C(C)(C)Cn1c(=O)[nH]/c(=N\c2ccc(Oc3ncccc3OC)cc2)n(Cc2ccc(Cl)cc2)c1=O` [Compound I-159] is 9 nM. The figure for `COC(=O)C(C)(C)Cn1c(=O)[nH]/c(=N\c2ccc(Oc3ccccn3)c(C)c2)n(Cc2ccc(Cl)cc2)c1=O` [Compound I-225] is 14 nM. Regarding `C[C@@H](Oc1ccc(/N=c2\[nH]c(=O)n(CC(C)(C)C(=O)O)c(=O)n2Cc2ccc(Cl)cc2)cc1F)C(F)(F)F` [Compound R-095], half-maximal inhibition (IC50) was put at 45 nM. The result for `Cc1cncc(Oc2ccc(/N=c3\[nH]c(=O)n(C[C@H](C)C(=O)O)c(=O)n3Cc3ccc(Cl)cc3)cc2)c1` [Compound R-185] reads 12 nM; that for `COC(=O)[C@@H](C)Cn1c(=O)[nH]/c(=N\c2ccc(Oc3ccc(CF)nc3)cc2)n(Cc2ccc(Cl)cc2)c1=O` [Compound I-239], 6 nM. As for `C[C@@H](Cn1c(=O)[nH]/c(=N\c2ccc(Oc3ccc(F)cn3)cc2)n(Cc2ccc(CF)cc2)c1=O)C(=O)O` [Compound I-216], the IC50 was determined as 17 nM.

Take `CC(C)(Cn1c(=O)[nH]/c(=N\c2ccc(OC3CCC3)c(F)c2)n(Cc2ccc(Cl)cc2)c1=O)C(=O)O` [Compound R-077]: the IC50 stood at 24 nM. In turn, `CC(=O)c1cccc(Oc2ccc(/N=c3\[nH]c(=O)n(CCC(=O)O)c(=O)n3Cc3ccc(Cl)cc3)cc2)n1` [Compound R-299] displayed an IC50 of 20 nM.

In the case of `Cc1ccc(Cn2c(=O)n(C[C@@H](C)C(=O)O)c(=O)[nH]/c2=N\c2ccc(Oc3ccccn3)cc2)cc1` [Compound I-148], the IC50 is 9 nM. The result for `CO[C@@H](Cn1c(=O)[nH]/c(=N\c2ccc(Oc3ccc(F)cn3)cc2)n(Cc2ccc(Cl)cc2)c1=O)C(=O)O` [Compound I-124] reads 5 nM; that for `CCc1[nH]c2ccc(/N=c3\[nH]c(=O)n(C[C@H](C)C(=O)O)c(=O)n3Cc3ccc(Cl)cc3)cc2c1C` [Compound R-074], 13 nM; that for `CCOC(=O)c1cnc(Oc2ccc(/N=c3\[nH]c(=O)n(CC)c(=O)n3Cc3ccc(Cl)cc3)cc2)cc1Cl` [Compound R-053], 52 nM.
